A word on the EC50: it is the midpoint of the concentration-response curve.

Active and inactive are the calls of the source.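 The calls were made as follows: active = compounds whose fitted half-maximal concentration for changing the GFP signal is at or below a set limit; inactive = the rest.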

Tested on in one assay: not listed separately
Description: TOR pathway RPL19A-GFP modulators, concentration series – cell-based, S. cerevisiae, flow cytometry, MLPCN hits, dose response (AID 2740).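 As to GFP fluorescence, lower = active: background is signal of the same compound in parental non-GFP s288c yeast.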 The conditions noted are these: S. cerevisiae RPL19A-GFP strain, flow cytometry fluorescence, 3 h; at 33 µM (top of the series). In general terms: Flow cytometry measures light scatter and fluorescence of single cells or particles in a stream.
On to `O=C1ON=C(c2ccc(Cl)cc2)/C1=C/c1ccc(O)cc1`, for which the GFP fluorescence, lower = active (kMESF (background-subtracted)) was 40.8 (inactive).

Take `O=[N+]([O-])c1cc(O)c2ncccc2c1`: the GFP fluorescence, lower = active (kMESF (background-subtracted)) was 45 (inactive).

Regarding `CCOC(=O)CSC1=NC(=O)/C(=C/c2ccc(OC)cc2)S1`, the GFP fluorescence, lower = active (kMESF (background-subtracted)) was 43.8 (inactive).

Turning to `O=[N+]([O-])c1ccc(N=Nc2c(Cl)cc(O)cc2Cl)cc1`, the GFP fluorescence, lower = active (kMESF (background-subtracted)) was 37.9 (inactive).

Regarding `O=C(/C=C/c1ccc(Br)cc1)NC(=S)NNC(=O)c1ccco1`, the GFP fluorescence, lower = active (kMESF (background-subtracted)) was 50.2 (inactive).

As for `N#Cc1ccc(N=c2ssnc2Cl)cc1`, the GFP fluorescence, lower = active (kMESF (background-subtracted)) is 42 (inactive).

For the compound `Cc1ccccc1N1C(=O)C(Cl)=C(N2CCN(c3ccccc3)CC2)C1=O`, the GFP fluorescence, lower = active (kMESF (background-subtracted)) is 39.3 (inactive).

Consider `CC1(C(=O)NC(=S)NNC(=O)c2ccncc2)CCCCC1`, for which the GFP fluorescence, lower = active (kMESF (background-subtracted)) was 39.9 (inactive).

Turning to `O=c1[nH]c(-c2ccc(Cl)cc2)cs1`, the GFP fluorescence, lower = active (kMESF (background-subtracted)) was 41.6 (inactive).

Consider `Cc1ccccc1[C@]1(C)ON(c2ccccc2C(F)(F)F)C1=O`, for which the GFP fluorescence, lower = active (kMESF (background-subtracted)) was 42.8 (inactive).

With `Cc1ccc(S(=O)(=O)N2CCCC2C(=O)NCc2ccncc2)cc1` (centres undefined), the GFP fluorescence, lower = active (kMESF (background-subtracted)) is 39.8 (inactive).

As for `O=S(=O)(c1ccccc1)c1ccc(C(F)(F)F)cn1`, the GFP fluorescence, lower = active (kMESF (background-subtracted)) is 45.7 (inactive).

Turning to `Cc1c(NC2=C(Cl)C(=O)N(c3ccccc3)C2=O)c(=O)n(-c2ccccc2)n1C`, the GFP fluorescence, lower = active (kMESF (background-subtracted)) is 43.6 (inactive).

For `Cc1cccc(/C=C/C(=O)c2ccc([N+](=O)[O-])o2)c1`, the GFP fluorescence, lower = active (kMESF (background-subtracted)) is 16.1 (inactive).

Consider `CCN(CC)C(=S)SSC(=S)N(CC)CC`, for which the GFP fluorescence, lower = active (kMESF (background-subtracted)) was 34.1 (inactive).

For the compound `Nc1ccccc1SC(C[N+](=O)[O-])c1ccccc1` (centres undefined), the GFP fluorescence, lower = active (kMESF (background-subtracted)) was 38.1 (inactive).

Regarding `COc1ccc2c(/C=C/c3cc[n+](C)cc3)c[nH]c2c1`, the GFP fluorescence, lower = active (kMESF (background-subtracted)) was 39 (inactive).

`O=C1N(c2ccccc2C(F)(F)F)O[C@]1(c1ccccc1)C1CCCCC1`: the GFP fluorescence, lower = active (kMESF (background-subtracted)) was 36.4 (inactive).

For `NC(=O)COc1ccc(C(=O)/C=C2/C(=O)Nc3ccccc32)cc1`, the GFP fluorescence, lower = active (kMESF (background-subtracted)) was 40.3 (inactive).

Consider `C=CCOc1cccc(C(=O)/C=C2/C(=O)Nc3ccccc32)c1`, for which the GFP fluorescence, lower = active (kMESF (background-subtracted)) is 40.7 (inactive).

Consider `N/C(Cc1ccc(Cl)c(Cl)c1)=N\OC(=O)c1cccs1`, for which the GFP fluorescence, lower = active (kMESF (background-subtracted)) was 40.7 (inactive).

For the compound `CN1C(=O)/C(=N\OC(=O)c2cccc3ccccc23)c2ccccc21`, the GFP fluorescence, lower = active (kMESF (background-subtracted)) is 42.9 (inactive).

Turning to `O=C(NNC(=S)NC(=O)c1ccco1)c1ccc(F)cc1`, the GFP fluorescence, lower = active (kMESF (background-subtracted)) was 49.8 (inactive).

Take `CN(C)/C=C/C(=O)c1ccc(-c2ccc(Cl)cc2Cl)o1`: the GFP fluorescence, lower = active (kMESF (background-subtracted)) was 40.9 (inactive).

In the case of `Cc1cc(NC(c2ccc(Cl)cc2)c2ccc3cccnc3c2O)no1` (centres undefined), the GFP fluorescence, lower = active (kMESF (background-subtracted)) is 39.3 (inactive).

For the compound `CCC(=O)Nc1ccc(NC(=O)c2cc3ccccc3o2)c(OC)c1`, the GFP fluorescence, lower = active (kMESF (background-subtracted)) is 40.4 (inactive).

Take `COc1ccc(N2C(=O)C(Cl)=C(NCc3ccccc3)C2=O)cc1`: the GFP fluorescence, lower = active (kMESF (background-subtracted)) was 44.3 (inactive).

On to `COc1cc(N=c2ssnc2Cl)cc(OC)c1`, for which the GFP fluorescence, lower = active (kMESF (background-subtracted)) was 31.6 (inactive).

`O=C(Oc1oc(-c2ccco2)nc1C=Nc1ccccc1)c1ccoc1`: the GFP fluorescence, lower = active (kMESF (background-subtracted)) was 46.5 (inactive).

As for `CCCCNc1c2c3c(cccc3n(C)c1=O)C(=O)c1ccccc1-2`, the GFP fluorescence, lower = active (kMESF (background-subtracted)) is 39.9 (inactive).

Consider `Cc1ccc(S(=O)(=O)/N=C(\Sc2ccccc2)c2ccccc2)cc1`, for which the GFP fluorescence, lower = active (kMESF (background-subtracted)) was 42 (inactive).

`O=C1N(c2ccccc2C(F)(F)F)OC1(Cc1ccccc1)c1ccccc1` (centres undefined): the GFP fluorescence, lower = active (kMESF (background-subtracted)) is 45.8 (inactive).

With `O=C(O)c1ccn2c(C(=O)c3ccccc3)c(-c3ccccc3)cc2c1`, the GFP fluorescence, lower = active (kMESF (background-subtracted)) was 39.3 (inactive).

`CCOC(=O)C1=C(O)c2ccccc2C(=O)/C1=C\c1ccc(C)cc1`: the GFP fluorescence, lower = active (kMESF (background-subtracted)) is -7.18 (inactive).

As to `COc1cc(/C=C/c2ccc3c(Br)cc(Br)c(O)c3n2)ccc1O`, the GFP fluorescence, lower = active (kMESF (background-subtracted)) is 29.4 (inactive).

On to `O=C1N(c2ccccc2C(F)(F)F)O[C@]1(c1ccccc1)C1CCCC1`, for which the GFP fluorescence, lower = active (kMESF (background-subtracted)) was 36.6 (inactive).

In the case of `COc1ccc(OC)c(S(=O)(=O)ON2C(=O)c3ccccc3C2=O)c1`, the GFP fluorescence, lower = active (kMESF (background-subtracted)) is 25.6 (inactive).

With `Cc1ccc2c(nc3s/c(=C\c4ccc(-c5ccccc5C(=O)O)o4)c(=O)n32)c1C`, the GFP fluorescence, lower = active (kMESF (background-subtracted)) is 53.5 (inactive).

`Cc1ccc(C2=NOC(=O)/C2=C\c2ccc(C)o2)cc1`: the GFP fluorescence, lower = active (kMESF (background-subtracted)) is 22 (inactive).

For the compound `CCC1(c2ccccc2)ON(c2c(Br)cccc2Br)C1=O` (centres undefined), the GFP fluorescence, lower = active (kMESF (background-subtracted)) was 34.8 (inactive).

Consider `CC(C)[C@]1(c2ccccc2)ON(c2ccccc2C(F)(F)F)C1=O`, for which the GFP fluorescence, lower = active (kMESF (background-subtracted)) was 36 (inactive).

For `O=C(O)c1ccc(COc2ccccc2C=C2C(=O)c3ccccc3C2=O)cc1`, the GFP fluorescence, lower = active (kMESF (background-subtracted)) is 38.9 (inactive).

As to `Oc1c(Br)cc(Br)cc1C=Nc1ccc2c(c1)OCO2`, the GFP fluorescence, lower = active (kMESF (background-subtracted)) is 40 (inactive).

Turning to `CCc1cccc2sc(N3CCN(C(=O)c4ccc([N+](=O)[O-])o4)CC3)nc12`, the GFP fluorescence, lower = active (kMESF (background-subtracted)) was 11.8 (inactive).

With `CCn1c(/C=C/c2ccc([N+](=O)[O-])o2)nc2ccccc2c1=O`, the GFP fluorescence, lower = active (kMESF (background-subtracted)) is -37.1 (inactive).

The test system of another assay is S. cerevisiae RPL19A-GFP strain, flow cytometry fluorescence, 3 h. Described as above.
Conditions: not given
For the compound `O=C(/C=C/c1ccccn1)c1ccc(Br)cc1O`, the concentration giving a half-maximal response (EC50) was 26.8 µM.

Consider `CC(=O)SC(C[N+](=O)[O-])c1cn(C(C)=O)c2ccccc12` (centres undefined), for which the EC50 was 12.4 µM.

`O=C1C=CC(=O)N1c1ccc(N2CCCCC2)cc1`: the concentration for a half-maximal effect (EC50) is 5.05 µM.

`CC(C)(C)C(=O)NC(=S)NNC(=O)c1sc2ccccc2c1Cl`: the EC50 was 12.3 µM.

With `O=C(CSC1=NS(=O)(=O)c2ccccc21)Nc1ccccc1`, the EC50 was 5.5 µM.

With `CCOC(=O)C(C(=O)OCC)C(C(=O)OCC)N1CCOCC1` (centres undefined), the half-maximal effective concentration (EC50) is 14.2 µM.

`O=C(/C=C/c1ccccn1)c1cc(Br)ccc1O`: the concentration giving a half-maximal response (EC50) was 8.96 µM.

`O=[N+]([O-])c1ccc(S(=O)(=O)c2cccc(C(F)(F)F)c2)nc1`: the concentration for a half-maximal effect (EC50) was 11.8 µM.

Take `O=C(Nc1ccc(Cl)cc1Cl)c1cccc(N2C(=O)C=CC2=O)c1`: the EC50 is 9.64 µM.

In the case of `Cc1ccc(C(=O)O)cc1N=Cc1cc(Br)cc(Br)c1O`, the 50% effective concentration (EC50) is 11.8 µM.

For `O=C(Nc1ccccc1)c1nnsc1S(=O)(=O)c1ccc(Cl)cc1`, the EC50 was 2.5 µM.

In the case of `N/C(Cc1ccc(Cl)cc1)=N\OC(=O)c1ccccc1`, the EC50 is 8.02 µM.

With `O=C1NC(=O)N(Cc2ccc(F)cc2)C(=O)/C1=C/c1cccs1`, the concentration giving a half-maximal response (EC50) was 4.65 µM.

Take `CCc1ccc2c(c1)/C(=C/C(=O)c1cccs1)C(=O)N2`: the 50% effective concentration (EC50) is 4.42 µM.

Consider `CC1=NNC(=O)/C1=C\c1cn(-c2ccccc2)nc1-c1cccs1`, for which the concentration giving a half-maximal response (EC50) was 3.14 µM.

For the compound `O=C1NC(=O)N(Cc2ccco2)C(=O)/C1=C/c1ccc(-c2cccc([N+](=O)[O-])c2)o1`, the EC50 is 11.2 µM.

Take `O=c1cc(CSc2ccc(Cl)cc2)nc(-c2ccccn2)[nH]1`: the EC50 is 12.9 µM.

In the case of `CC1(C)C[C@H]2C=C(C=O)[C@]3(C=O)C[C@]3(C)[C@H]2C1`, the EC50 was 3.62 µM.

For the compound `O=C(/C=C/c1cccc(Cl)c1)c1nc2ccccc2[nH]1`, the 50% effective concentration (EC50) is 4.06 µM.

In the case of `C[C@H]1C[C@@H](C)C(=O)[C@@H]([C@H](O)CC2CC(=O)NC(=O)C2)C1`, the EC50 was 0.57 µM.

As to `Cn1ncc(S(=O)(=O)Cc2ccccc2)c(Cl)c1=O`, the EC50 is 14.9 µM.

Take `O=C1C=CC(=O)N1c1ccc(O)cc1`: the EC50 was 12.6 µM.

For `Cc1ccc2nc(Cl)c3nnnn3c2c1`, the concentration giving a half-maximal response (EC50) was 5.33 µM.

For the compound `Cc1cccc(C)c1NC(=O)C(Cl)C(=O)c1ccccc1` (centres undefined), the EC50 is 1.9 µM.

For the compound `ClC(Cl)(c1nnnn1-c1ccccc1)c1nnnn1-c1ccccc1`, the concentration giving a half-maximal response (EC50) is 4.62 µM.

With `CCOc1ccc(N/N=C(/C#N)C(N)=O)cc1`, the half-maximal effective concentration (EC50) was 4.55 µM.

As to `CC(C)(C)C(=O)C(Cl)C(=O)Nc1ccccc1` (centres undefined), the half-maximal effective concentration (EC50) is 11.2 µM.

`CC1=NNC(=O)/C1=C\c1cn(-c2ccccc2)nc1-c1ccccc1`: the EC50 was 11.4 µM.

Regarding `Cc1ccc(/C=C2/C(=O)ON=C2c2ccccc2)o1`, the EC50 was 11.9 µM.

In the case of `O=C(/C=C/c1cccc([N+](=O)[O-])c1)c1ccc([N+](=O)[O-])o1`, the half-maximal effective concentration (EC50) is 3.5 µM.

For `O=[N+]([O-])c1cc(S(=O)(=O)C(F)(F)F)ccc1Sc1nc2ccccc2s1`, the 50% effective concentration (EC50) was 14.4 µM.

Turning to `Cc1ccc(NC(=O)c2cc(N3C(=O)C=CC3=O)ccc2Cl)cc1C`, the 50% effective concentration (EC50) is 7.49 µM.

For `CCc1nc2ccccc2c(=O)n1NC(=O)c1c(O)c2ccccc2n(CC)c1=O`, the EC50 was 7.44 µM.

On to `O=C(OCC(=O)N1CCN(C(=O)c2ccco2)CC1)c1cc(-c2cccc(Br)c2)nc2ccccc12`, for which the EC50 is 3.18 µM.

As for `CCOc1ccc(N2C(=O)/C(=C\c3cccs3)C(=O)NC2=S)cc1`, the 50% effective concentration (EC50) is 5.66 µM.

With `O=C(C#Cc1ccccc1)c1ccco1`, the 50% effective concentration (EC50) is 25.6 µM.

As to `C#CCOCCOCCOCCNc1nc(N2CCN(C(=O)CCCCCCCCCCNC(=O)[C@H](CCCCN)n3cc(C)nn3)CC2)nc(N2CCN(C(=O)CCCCCCCCCCNC(=O)[C@H](CCCN=C(N)N)n3cc(C[C@@H](C)CC)nn3)CC2)n1`, the EC50 is 10.7 µM.

Regarding `O=C(Nc1nc(-c2ccccn2)cs1)c1cc2ccccc2o1`, the concentration for a half-maximal effect (EC50) is 11.7 µM.

With `O=C(C#Cc1ccccc1)c1cccc([N+](=O)[O-])c1`, the EC50 is 7.47 µM.

Source of the values: PubChem BioAssay AID2740 (NMMLSC, 2010).
